Series [1] is described as follows: enalaprilate release from segmented silicon disc release apparatus. The series is classed as physicochemical. The source says: A release apparatus was produced from round silicon discs (outer diameter 14.0 mm, thickness 0.525 mm) having a very low surface roughness. The release apparatus consisted of 15 discs having a core drilling (diameter=8 mm), a silicon disc without a core drilling as a cover plate and a base plate having closable openings for filling. A silicon disc having a core drilling was glued onto the base plate of titanium. The release apparatus was assembled underwater and fixed by means of a holder. Subsequently, the reservoir was emptied through the reclosable openings in the base plate before the release apparatus was filled with an enalaprilate suspension.
As in Example 3, a release apparatus was produced from round silicon discs (outer diameter 14.0 mm, thickness 0.525 mm), the silicon discs being coated with polyelectrolyte multilayers. Before the assembly of the release apparatus, the silicon discs were coated with a 16 PAH/PSS layer.
As in Example 4, a release apparatus was produced from round coated silicon discs (outer diameter 14.0 mm, thickness 0.525 mm), 25 discs having a core drilling being used.

The nature of series [2]: ibuprofen release from segmented glass release apparatus in phosphate saline buffer. The note with it: 10 intersegment films, 37° C., phosphate saline buffer pH 7.4 with sodium azide. The series is classed as physicochemical. The procedure: A release apparatus was produced from glass discs 3 to 11 (soda-lime glass, edge lengths 26.0×26.0 mm, disc thickness of 1.0 mm) having a surface roughness of 0.172-1.39 Ra (see FIGS. 7A and 7B). The release apparatus consisted of 9 discs (26.0×26.0 mm) having a core drilling 13 (diameter=8 mm) and was closed off on both sides by two discs without a core drilling. Separate intersegment films were not used. A reservoir volume of theoretically 452.4 μl results in the case of 9 discs having a core drilling and a disc thickness of 1.0 mm. The release apparatus was filled with a model substance before closing (100 mg of crystalline ibuprofen) and the remaining reservoir volume was subsequently filled with release medium. Following this, the release behavior of the model substance was investigated at 37° C. in phosphate saline buffer pH 7.4 with addition of sodium azide. FIGS. 7C and 7D show the ibuprofen release from the segmented glass apparatus having 10 intersegment films in phosphate saline buffer pH 7.4 with addition of sodium azide. […] A release apparatus consisting of glass discs (soda-lime glass, edge lengths 26.0×26.0 mm, disc thickness of 1.0 mm) having a surface roughness of 0.172-1.39 Ra was produced (see FIGS. 7A and 7B), the discs being modified by a separating film covering only the outer edges of the discs such that an intersegment film thickness (hollow space) of about 50 μm was present. The release apparatus consisted of 9 discs 3 to 11 (26.0×26.0 mm) having a core drilling 13 (diameter=8 mm) and was closed off on both sides by two discs without a core drilling. Before closing, the release apparatus was filled with a model substance (100 mg of crystalline ibuprofen) and the remaining reservoir volume was subsequently filled with release medium. Following this, the release behavior of the model substance was investigated at 37° C. in phosphate saline buffer pH 7.4 with addition of sodium azide. […]

For the compound `C[C@H](N[C@@H](CCc1ccccc1)C(=O)O)C(=O)N1CCC[C@H]1C(=O)O` [enalaprilate], the release rate entry in series [1] (Example 3: uncoated silicon discs, 15 intersegment films, enalaprilate suspension) is “about 150 μg per day”; in series [1] (Example 4: silicon discs coated with 16 PAH/PSS layer, 15 modified intersegment films), “about 75 μg per day”; in series [1] (Example 5: coated silicon discs, 25 modified intersegment films), “about 140 μg per day”.
In the case of `CC(C)Cc1ccc(C(C)C(=O)O)cc1` (stereo not drawn) [ibuprofen], in series [2] (Example 1: glass apparatus, no separate films, 100 mg crystalline ibuprofen), the “release rate of the model substance (constant release behavior)” value is recorded as “about 65 μg/d”. Moreover, in series [2] (Example 1: glass apparatus, no separate films), the “duration of constant release behavior” value was “more than 100 days”. For the same compound, in series [2] (Example 2: glass apparatus, modified film thickness (hollow space) about 50 μm, 100 mg crystalline ibuprofen, for 10 to 100 days), the “release rate of the model substance” value is on record as “about 0.6 mg/d”.

Values taken from patent US20090117170A1, “SEGMENTED DEVICE FOR THE DELAYED RELEASE OF MOLECULES IN A TANGENTIAL DIRECTION THROUGH THIN FILMS AND USES THEREOF” (CAPSULUTION NANOSCIENCE AG, priority 2004, published 2009).
